From patent publication US10426841B2, “Combination of drugs with protein-binding prodrugs” (VERGELL MEDICAL S.A., priority 2010, dated 2019)

Tests used:
[1] = tested on: human ovarian cancer xenografts (A2780); experiment: Antitumor efficacy and tolerability in the ovarian carcinoma A2780 xenograft model; conditions: for toxic death: 8 mice per group; for RTV day 30 (relative tumor volume): * significant to Doxorubicin; for antitumor efficacy (in words): doxorubicin 2×8 mg/kg up to day 30
Protocol: In order to evaluate the in vivo antitumor efficacy of a combination of doxorubicin with DOXO-EMCH in tumor-bearing mice, a direct comparison was made with a group treated with doxorubicin (2×8 mg/kg body weight) or DOXO-EMCH (3×24 mg/kg body weight doxorubicin equivalents) at their respective MTDs. For the combination, a lower dose of doxorubicin (3×4 mg/kg body weight) was combined with a lower dose of DOXO-EMCH (3×12 mg/kg body weight doxorubicin equivalents) wherein the DOXO-EMCH was administered 6 h prior to doxorubicin on the respective days of administration (cf. Table 1).
Experimental Procedure. […] For in vivo testing, female NMRI: nu/nu mice (Taconic, Denmark) were used. The mice were held in individually ventilaged cages (IVC) under sterile and standardized environmental conditions (25±2° C. room temperature, 50±10% relative humidity, 12 hour light-dark-rhythm). They received autoclaved food and bedding (ssniff, Soest, Germany) and acidified (pH 4.0) drinking water ad libitum. A2780 tumor fragments were transplanted subcutaneously (s.c.) into the left flank region of anaesthetized mice (40 mg/kg i.p. Radenarkon, Asta Medica, Frankfurt, Germany) on day 0. Mice were randomly distributed to the experimental groups (8 mice per group). When the tumors were grown to a palpable size, treatment was initiated. Mice were treated intravenously (i.v.) with either glucose phosphate buffer (10 mM sodium phosphate, 5% D-(+)-glucose, pH 5.8), doxorubicin (2×8 mg/kg body weight), or DOXO-EMCH (3×24 mg/kg body weight doxorubicin equivalents), or a combination of DOXO-EMCH (3×12 mg/kg body weight doxorubicin equivalents) and doxorubicin (3×4 mg/kg body weight) with a 6 hour interval on the day of administration. DOXO-EMCH was dissolved in 10 mM sodium phosphate, 5% D-(+)-glucose, pH 5.8. The compounds were injected intravenously at weekly intervals on days 6 and 13 and on days 6, 13 and 20 for the remaining compounds. The injection volume was 0.2 ml/20 g body weight. Tumor size was measured twice weekly with a caliper-like instrument in two dimensions. Individual tumor volumes (V) were calculated by the formula V=(length×[width]2)/2 and related to the values on the first day of treatment (relative tumor volume, RTV). Statistical analysis was performed with the U-test (Mann and Whitney) with p<0.05. The body weight of mice was determined every 3 to 4 days.

[2] = Maximum tolerated dose in nude mice; assay type: in vivo; conditions: 2×12 mg/kg body weight
[3] = i.v., doxorubicin 8 mg/kg days 6, 13, DOXO-EMCH 24 mg/kg days 6, 13, 20, combination 4 + 12 mg/kg days 6, 13, 20
[4] = DOXO-EMCH 3×24 mg/kg, combination DOXO-EMCH 3×12 + doxorubicin 3×4 mg/kg

Compound | toxic death [1, 3] | body weight loss ([1]; DOXO-EMCH 3×24 mg/kg, after day 37, some animals died or were killed) | duration of tumor remissions [1, 4] | RTV day 20 (relative tumor volume) [1, 3] | RTV day 30 (relative tumor volume) [1, 3] | BWC [%] (body weight change) ([1]; day of value in brackets in the cell, i.v., doxorubicin 8 mg/kg days 6, 13, DOXO-EMCH 24 mg/kg days 6, 13, 20, combination 4 + 12 mg/kg days 6, 13, 20) | antitumor efficacy (in words) [1, 4] | toxicity at doses higher than MTD [2]
COc1cccc2c1C(=O)c1c(O)c3c(c(O)c1C2=O)CC(O)(C(CO)=NNC(=O)CCCCCN1C(=O)C=CC1=O)CC3OC1CC(N)C(O)C(C)O1 (stereo not drawn) [DOXO-EMCH, 6-maleimidocaproyl(hydrazone) derivative of doxorubicin] | 0 | over 30% | up to 37 days | 0.2 | 0.1* | −31 (d37) % | pronounced antitumor effect | 
COc1cccc2c1C(=O)c1c(O)c3c(c(O)c1C2=O)C[C@@](O)(C(=O)CO)C[C@@H]3O[C@H]1C[C@H](N)[C@H](O)[C@H](C)O1 [Doxorubicin, doxorubicin, reference compound] | 0 |  |  | 7.4 | 23.9 |  | moderate antitumor efficacy | unacceptable toxicity and mortality
